Laboratory results from PubChem BioAssay (NCI).
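A five-concentration, 48-hour dose response in 96-well plates underlies each endpoint, interpolated linearly between surrounding concentrations. TGI denotes the concentration required for complete inhibition of growth.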 *1 amine or outer side, *2 acyl side, *3 side chain or, on linkers, in order; H or OH if unused. Where a SMILES comes first, the peptide text is derived from it. The star is where a group is joined. γGlu = O=C(O)[CH](CCC(=O)[*:2])N[*:1]; NHOH = ON*

What was measured:
Assay in all cases: DTP human tumour cell line panel, 48 h
A498 renal = tested on: A498 renal
MDA-MB-231 breast = tested on: MDA-MB-231 breast
TK-10 renal = tested on: TK-10 renal
COLO 205 colon = tested on: COLO 205 colon
OVCAR-4 ovarian = tested on: OVCAR-4 ovarian
MDA-MB-435 = tested on: MDA-MB-435
K-562 leukemia = tested on: K-562 leukemia
MOLT-4 leukemia = tested on: MOLT-4 leukemia
NCI/ADR-RES ovarian = tested on: NCI/ADR-RES ovarian
A549 NSCLC = tested on: A549 NSCLC
786-0 renal = tested on: 786-0 renal
SF-539 CNS = tested on: SF-539 CNS
HOP-92 NSCLC = tested on: HOP-92 NSCLC
SF-295 CNS = tested on: SF-295 CNS
HL-60(TB) leukemia = tested on: HL-60(TB) leukemia
HCT-15 colon = tested on: HCT-15 colon
IGROV1 ovarian = tested on: IGROV1 ovarian
HOP-62 NSCLC = tested on: HOP-62 NSCLC
UACC-257 melanoma = tested on: UACC-257 melanoma
SN12C renal = tested on: SN12C renal
EKVX NSCLC = tested on: EKVX NSCLC
OVCAR-5 ovarian = tested on: OVCAR-5 ovarian
SK-MEL-2 melanoma = tested on: SK-MEL-2 melanoma
ACHN renal = tested on: ACHN renal
OVCAR-8 ovarian = tested on: OVCAR-8 ovarian
HS 578T breast = tested on: HS 578T breast
T-47D breast = tested on: T-47D breast
DU-145 prostate = tested on: DU-145 prostate
NCI-H226 lung = tested on: NCI-H226 lung
PC-3 prostate = tested on: PC-3 prostate
HT29 colon = tested on: HT29 colon
HCT-116 colon = tested on: HCT-116 colon
NCI-H460 lung = tested on: NCI-H460 lung
UO-31 renal = tested on: UO-31 renal
CCRF-CEM leukemia = tested on: CCRF-CEM leukemia
SK-MEL-5 melanoma = tested on: SK-MEL-5 melanoma
SNB-19 CNS = tested on: SNB-19 CNS
U251 CNS = tested on: U251 CNS
SW-620 colon = tested on: SW-620 colon
CAKI-1 renal = tested on: CAKI-1 renal
KM12 colon = tested on: KM12 colon
M14 melanoma = tested on: M14 melanoma
NCI-H522 lung = tested on: NCI-H522 lung
NCI-H23 lung = tested on: NCI-H23 lung
SNB-75 CNS = tested on: SNB-75 CNS
SK-OV-3 ovarian = tested on: SK-OV-3 ovarian
MCF7 breast = tested on: MCF7 breast
OVCAR-3 ovarian = tested on: OVCAR-3 ovarian
HCC-2998 colon = tested on: HCC-2998 colon
RXF 393 renal = tested on: RXF 393 renal
BT-549 breast = tested on: BT-549 breast
UACC-62 melanoma = tested on: UACC-62 melanoma
SK-MEL-28 melanoma = tested on: SK-MEL-28 melanoma
MDA-N = tested on: MDA-N
RPMI-8226 leukemia = tested on: RPMI-8226 leukemia
LOX IMVI melanoma = tested on: LOX IMVI melanoma
SF-268 CNS = tested on: SF-268 CNS
MALME-3M melanoma = tested on: MALME-3M melanoma
SR leukemia = tested on: SR leukemia

SMILES: CCOC(=O)CNC(=O)C(CCC(=O)NO)NC(=O)CCC(N)C(=O)O (stereo not drawn) (γGlu-Glu(NHOH)-Gly-OEt; configuration not given here)
- TGI (A498 renal): > 100 µM
- TGI (MDA-MB-231 breast): > 100 µM
- TGI (TK-10 renal): > 100 µM
- TGI (COLO 205 colon): > 100 µM
- TGI (OVCAR-4 ovarian): > 100 µM
- TGI (MDA-MB-435): > 100 µM
- TGI (K-562 leukemia): > 100 µM
- TGI (MOLT-4 leukemia): > 100 µM
- TGI (NCI/ADR-RES ovarian): > 100 µM
- TGI (A549 NSCLC): > 100 µM
- TGI (786-0 renal): > 100 µM
- TGI (SF-539 CNS): > 100 µM
- TGI (HOP-92 NSCLC): > 100 µM
- TGI (SF-295 CNS): > 100 µM
- TGI (HL-60(TB) leukemia): > 100 µM
- TGI (HCT-15 colon): > 100 µM
- TGI (IGROV1 ovarian): > 100 µM
- TGI (HOP-62 NSCLC): > 100 µM
- TGI (UACC-257 melanoma): > 100 µM
- TGI (SN12C renal): > 100 µM
- TGI (EKVX NSCLC): > 100 µM
- TGI (OVCAR-5 ovarian): > 100 µM
- TGI (SK-MEL-2 melanoma): > 100 µM
- TGI (ACHN renal): > 100 µM
- TGI (OVCAR-8 ovarian): > 100 µM
- TGI (HS 578T breast): > 100 µM
- TGI (T-47D breast): > 100 µM
- TGI (DU-145 prostate): > 100 µM
- TGI (NCI-H226 lung): > 100 µM
- TGI (PC-3 prostate): > 100 µM
- TGI (HT29 colon): > 100 µM
- TGI (HCT-116 colon): > 100 µM
- TGI (NCI-H460 lung): > 100 µM
- TGI (UO-31 renal): > 100 µM
- TGI (CCRF-CEM leukemia): > 100 µM
- TGI (SK-MEL-5 melanoma): > 100 µM
- TGI (SNB-19 CNS): > 100 µM
- TGI (U251 CNS): > 100 µM
- TGI (SW-620 colon): > 100 µM
- TGI (CAKI-1 renal): > 100 µM
- TGI (KM12 colon): > 100 µM
- TGI (M14 melanoma): > 100 µM
- TGI (NCI-H522 lung): > 100 µM
- TGI (NCI-H23 lung): > 100 µM
- TGI (SNB-75 CNS): > 100 µM
- TGI (SK-OV-3 ovarian): > 100 µM
- TGI (MCF7 breast): > 100 µM
- TGI (OVCAR-3 ovarian): > 100 µM
- TGI (HCC-2998 colon): > 100 µM
- TGI (RXF 393 renal): > 100 µM
- TGI (BT-549 breast): > 100 µM
- TGI (UACC-62 melanoma): > 100 µM
- TGI (SK-MEL-28 melanoma): > 100 µM
- TGI (MDA-N): > 100 µM
- TGI (RPMI-8226 leukemia): > 100 µM
- TGI (LOX IMVI melanoma): > 100 µM
- TGI (SF-268 CNS): > 100 µM

SMILES: NCCNCCNc1ccc(NCCNCCN)c2c1C(=O)c1c(O)ccc(O)c1C2=O
- TGI (A498 renal): > 100 µM
- TGI (MDA-MB-231 breast): > 100 µM
- TGI (TK-10 renal): > 100 µM
- TGI (COLO 205 colon): > 100 µM
- TGI (OVCAR-4 ovarian): > 100 µM
- TGI (MDA-MB-435): > 100 µM
- TGI (K-562 leukemia): > 100 µM
- TGI (MOLT-4 leukemia): > 100 µM
- TGI (MALME-3M melanoma): > 100 µM
- TGI (NCI/ADR-RES ovarian): > 100 µM
- TGI (A549 NSCLC): > 100 µM
- TGI (786-0 renal): > 100 µM
- TGI (SF-539 CNS): > 100 µM
- TGI (SR leukemia): 23.8 µM
- TGI (HOP-92 NSCLC): > 100 µM
- TGI (SF-295 CNS): > 100 µM
- TGI (HCT-15 colon): > 100 µM
- TGI (IGROV1 ovarian): > 100 µM
- TGI (HOP-62 NSCLC): > 100 µM
- TGI (UACC-257 melanoma): > 100 µM
- TGI (SN12C renal): > 100 µM
- TGI (EKVX NSCLC): > 100 µM
- TGI (OVCAR-5 ovarian): > 100 µM
- TGI (ACHN renal): > 100 µM
- TGI (OVCAR-8 ovarian): > 100 µM
- TGI (HS 578T breast): > 100 µM
- TGI (DU-145 prostate): > 100 µM
- TGI (NCI-H226 lung): > 100 µM
- TGI (PC-3 prostate): > 100 µM
- TGI (HT29 colon): > 100 µM
- TGI (HCT-116 colon): > 100 µM
- TGI (NCI-H460 lung): > 100 µM
- TGI (UO-31 renal): > 100 µM
- TGI (CCRF-CEM leukemia): > 100 µM
- TGI (SK-MEL-5 melanoma): > 100 µM
- TGI (SNB-19 CNS): > 100 µM
- TGI (U251 CNS): > 100 µM
- TGI (SW-620 colon): > 100 µM
- TGI (CAKI-1 renal): > 100 µM
- TGI (KM12 colon): > 100 µM
- TGI (M14 melanoma): > 100 µM
- TGI (NCI-H522 lung): > 100 µM
- TGI (NCI-H23 lung): > 100 µM
- TGI (SNB-75 CNS): > 100 µM
- TGI (SK-OV-3 ovarian): > 100 µM
- TGI (MCF7 breast): > 100 µM
- TGI (OVCAR-3 ovarian): > 100 µM
- TGI (HCC-2998 colon): > 100 µM
- TGI (RXF 393 renal): > 100 µM
- TGI (BT-549 breast): > 100 µM
- TGI (UACC-62 melanoma): > 100 µM
- TGI (SK-MEL-28 melanoma): > 100 µM
- TGI (MDA-N): > 100 µM
- TGI (RPMI-8226 leukemia): > 100 µM
- TGI (LOX IMVI melanoma): > 100 µM
- TGI (SF-268 CNS): > 100 µM

SMILES: CC1(C)OC(=O)C(=Cc2ccc([N+](=O)[O-])s2)C(=O)O1
- TGI (A498 renal): 54.7 µM
- TGI (MDA-MB-231 breast): 36.4 µM
- TGI (TK-10 renal): 31.5 µM
- TGI (COLO 205 colon): 31 µM
- TGI (MDA-MB-435): 30.4 µM
- TGI (MOLT-4 leukemia): 24.6 µM
- TGI (MALME-3M melanoma): 34.2 µM
- TGI (NCI/ADR-RES ovarian): 39.8 µM
- TGI (A549 NSCLC): > 100 µM
- TGI (786-0 renal): 32.2 µM
- TGI (SF-539 CNS): 29.4 µM
- TGI (SR leukemia): 6.31 µM
- TGI (HOP-92 NSCLC): 37.9 µM
- TGI (SF-295 CNS): 30.4 µM
- TGI (HL-60(TB) leukemia): 5.59 µM
- TGI (HCT-15 colon): 14.2 µM
- TGI (HOP-62 NSCLC): 35.1 µM
- TGI (UACC-257 melanoma): 35.8 µM
- TGI (SN12C renal): 31.6 µM
- TGI (EKVX NSCLC): 31.8 µM
- TGI (OVCAR-5 ovarian): 31.2 µM
- TGI (ACHN renal): 27.3 µM
- TGI (OVCAR-8 ovarian): 31.3 µM
- TGI (T-47D breast): 38 µM
- TGI (DU-145 prostate): 30.9 µM
- TGI (NCI-H226 lung): 60.5 µM
- TGI (PC-3 prostate): 38.1 µM
- TGI (HT29 colon): 38.5 µM
- TGI (HCT-116 colon): 9.84 µM
- TGI (NCI-H460 lung): > 100 µM
- TGI (UO-31 renal): 23.6 µM
- TGI (CCRF-CEM leukemia): 88.6 µM
- TGI (SK-MEL-5 melanoma): 30 µM
- TGI (SNB-19 CNS): 31.6 µM
- TGI (U251 CNS): 30.4 µM
- TGI (SW-620 colon): 4.1 µM
- TGI (CAKI-1 renal): 29.5 µM
- TGI (KM12 colon): 29 µM
- TGI (M14 melanoma): 26.5 µM
- TGI (NCI-H23 lung): 39.1 µM
- TGI (SK-OV-3 ovarian): 65.3 µM
- TGI (MCF7 breast): 68.4 µM
- TGI (OVCAR-3 ovarian): 23.2 µM
- TGI (HCC-2998 colon): 24.7 µM
- TGI (BT-549 breast): 26.8 µM
- TGI (SK-MEL-28 melanoma): 34.6 µM
- TGI (MDA-N): 32.5 µM
- TGI (RPMI-8226 leukemia): 37.1 µM
- TGI (LOX IMVI melanoma): 32.6 µM
- TGI (SF-268 CNS): 29.5 µM
